Experimental data reported in article PMC1065314, “A2B adenosine receptor activity is reduced in neutrophils from patients with systemic sclerosis” (Arthritis Research & Therapy, 2004).

target: T1, A2B adenosine receptor (Homo sapiens, UniProt P29275); assay: [3H]NECA binding to A2B AR in neutrophil membranes (plus CPA and SCH58261); settings: read-out: [^3H]NECA Ki; control neutrophil membranes; competition with 20 nmol/l [3H]NECA plus 50 nmol/l CPA and 100 nmol/l SCH58261; mean ± SEM of three experiments; Cheng and Prusoff
T1 construct: Aliquots of neutrophil membranes (0.2–0.4 mg proteins) were incubated in a final volume of 250 μl T2 buffer; from tissue; host or cells: neutrophils from healthy volunteers and systemic sclerosis patients (membranes)
T1 sequence (P29275 1-332): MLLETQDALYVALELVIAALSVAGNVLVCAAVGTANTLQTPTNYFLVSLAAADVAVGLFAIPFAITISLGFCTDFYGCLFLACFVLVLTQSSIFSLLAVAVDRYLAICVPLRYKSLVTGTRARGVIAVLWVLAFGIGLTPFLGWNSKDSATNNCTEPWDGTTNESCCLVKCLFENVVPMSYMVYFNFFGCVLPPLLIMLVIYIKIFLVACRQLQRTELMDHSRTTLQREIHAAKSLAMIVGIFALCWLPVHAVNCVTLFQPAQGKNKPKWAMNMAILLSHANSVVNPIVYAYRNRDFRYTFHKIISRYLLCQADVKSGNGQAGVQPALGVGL
Procedure: For membrane preparation, cells were washed twice with 10 mmol/l Tris-HCl buffer, pH 7.4, containing 10 mmol/l MgCl2, in the presence of protease inhibitors (200 μg/ml bacitracine, 160 μg/ml benzamidine, 20 μg/ml trypsin inhibitor [T1]) and centrifuged at 48,000 g for 15 min at 4°C. Pellets were diluted in 20 volumes of T1 buffer, treated with ADA (2 IU/ml) for 60 min at 37°C to remove endogenous adenosine, and washed twice with 50 mmol/l Tris-HCl buffer, pH 7.4, containing 10 mmol/l MgCl2 (T2).
Aliquots of neutrophil membranes (0.2–0.4 mg proteins) were incubated in a final volume of 250 μl T2 buffer. […] After 90 min incubation at 0°C, the reaction was terminated either by vacuum filtration through Whatman GF/C glass fibre filters, accompanied by three washes with ice-cold T2 buffer (4 ml), or by centrifugation at 2900 g for 15 min at 4°C. A2B AR specificity was evaluated through competition experiments, using different AR ligands.

Compound	Ki [nM]
O=C(Cc1ccccc1)Nc1nc2ccc(Cl)cc2c2nc(-c3ccco3)nn12 [MRS1220]	> 10000
CCCn1c(=O)c2[nH]c(-c3ccc(OCC(=O)Nc4ccc(C(C)=O)cc4)cc3)nc2n(CCC)c1=O [MRS1706]	5 ± 0.3
Nc1nc(Cl)nc2c1ncn2[C@@H]1O[C@H](CO)[C@@H](O)[C@H]1O [2 Cl-adenosine]	954 ± 600
